# Results: PubChem BioAssay AID1845201 (Molecular Pharmacology Branch, DTP, NCI, 2023)
# System: COR L88 complex tumor spheroid viability
# Test: Anticancer human tumor COR L88 cell line growth inhibition;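 further: compound exposure lasted 7 days before viability readout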;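 on viability, T/C: percent of DMSO vehicle-treated spheroids = 100%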
# Details: for IC50: curve of first compound; for viability, T/C: stronger effect = lower value
# Excerpt: Multicellular complex tumor spheroid response to DNA repair inhibitors in combination with DNA-damaging drugs
# This study explores the anticancer activities of DNA-damaging drugs and inhibitors of DNA damage repair, both as single agents and in combinations. Complex tumor spheroids comprised of malignant cells, endothelial cells and mesenchymal stem cells served as an in vitro model for human solid tumors. This model system incorporates physiologically relevant features and patient-derived or established malignant cell lines with clinically relevant genetic alterations from many tumor types. Twenty-six patient-derived or established malignant cell lines were evaluated representing sarcoma, melanoma, small cell lung cancer (SCLC), non-small cell lung cancer (NSCLC), as well as bladder, ovarian and pancreatic cancers. The concentration ranges selected for each drug and investigational agent were based upon clinically achievable concentrations if the clinical Cmax of the agent was known.
# Compounds. The drugs and compounds olaparib (NSC753686), talazoparib (NSC767125), berzosertib (NSC777718), elimusertib (NSC800525), nedisertib (NSC802822), VX-984 (NSC792969), AZD-1390 (NSC803789), temozolomide (NSC362856), topotecan (NSC609699), trabectedin (NSC813783), staurosporine (NSC755774), and gemcitabine (NSC613327) were obtained from the National Cancer Institute (NCI) Developmental Therapeutics Program Chemical Repository. The FDA-approved anticancer drug set is available from the Developmental Therapeutics Program at https://dtp.cancer.gov/organization/dscb/obtaining/available_plates.htm. […] The stock solutions were prepared in dimethyl sulfoxide (DMSO, Sigma-Aldrich, St. Louis, MO, cat. D2650) at 400-fold the tested concentration and stored at -70 degrees C. Prior to their use, the stock solutions were diluted in fresh medium and the final DMSO concentration in the assay was 0.25% (v/v). All drugs and investigational agents were tested over a range starting from a high concentration at or near the clinical Cmax and decreasing in half-log increments. If the clinical Cmax for an agent had not been determined, the highest concentration tested was 10 microM.
# Cell Lines. The patient-derived cancer cell (PDC) lines: 156681-154-R-J1-PDC, 283228-195-R-J1-PDC, 287954-098-R-J1-PDC, 292921-168-R-J2-PDC, 349418-098-R-PDC, 425362-245-T-J1-PDC, 556581-035-R-J1-PDC, and BL0293-F563-PDC were received from the NCI Patient-Derived Models Repository (PDMR, https://pdmr.cancer.gov). The established cell lines HS-SY-2 (RRID:CVCL_8719), MPNST, and SYO-1 (RRID:CVCL_7146) were obtained from the Sloan Kettering Institute. The alveolar soft parts sarcoma cell line ASPS-1 (RRID:CVCL_S738) was established at the NCI and grown from internal seed stocks. The following established cell lines were purchased from the American Type Culture Collection (ATCC, Manassas, VA): G-401 (ATCC, cat. CRL-1441, RRID:CVCL_0270), SW982 (ATCC, cat. HTB-93, RRID:CVCL_1734), VA-ES-BJ (ATCC, cat. CRL-2138, RRID:CVCL_1785), NCI-H719 (ATCC, cat. CRL-5837, RRID:CVCL_1582), NCI-H196 (ATCC, cat. CRL-5823, RRID:CVCL_1509), NCI-H841 (ATCC, cat. CRL-5845, RRID:CVCL_1595), NCI-H1618 (ATCC, cat. CRL-5879, RRID:CVCL_1480), NCI-H1876 (ATCC, cat. CRL-5902, RRID:CVCL_1503), DMS 114 (ATCC, cat. CRL-2066; RRID:CVCL_1174), NCI-H211 (ATCC, cat. CRL-5824; RRID:CVCL_1529), and SW 1271 (ATCC, cat. CRL-2177, RRID:CVCL_1716). The small cell lung cancer cell line COR-L88 was purchased from Sigma-Aldrich (cat. 92031917-1VL, RRID:CVCL_1141). The non-small cell lung cancer cell lines NCI-H226 (RRID:CVCL_1544) and NCI-H322M (RRID:CVCL_1557) were established at the NCI and grown from internal seed stocks. Pooled donor human umbilical vein endothelial cells (HUVEC, Lonza, cat. CC-2519) and human mesenchymal stem cells (hMSC, Lonza, cat. PT-2501) were purchased from Lonza (Walkersville, MD).
# Cell Culture. All cells were maintained in an incubator at 37 degrees C and 5% CO2 with 95% humidity. […]
compound,measurement,setting,value
COc1cc(C)[nH]c(=O)c1CN1CCc2c(Cl)cc(C(OC)C3COC3)c(Cl)c2C1=O (stereo not given) + CC[C@@]1(O)C(=O)OCc2c1cc1n(c2=O)Cc2cc3c(CN(C)C)c(O)ccc3nc2-1,IC50,second compound 0.003 µM,> 10 µM
same,IC50,second compound 0.00949 µM,> 10 µM
same,IC50,second compound 0.03 µM,< 0.0316 µM
same,IC50,second compound 0.0949 µM,< 0.0316 µM
same,IC50,second compound 0.3 µM,< 0.0316 µM
same,"viability, T/C","second compound 0.003 µM, first compound 0.0316 µM",87%
same,"viability, T/C","second compound 0.003 µM, first compound 0.1 µM",90.9%
same,"viability, T/C","second compound 0.003 µM, first compound 0.316 µM",83.5%
same,"viability, T/C","second compound 0.003 µM, first compound 1 µM",85.4%
same,"viability, T/C","second compound 0.003 µM, first compound 3.16 µM",86.5%
same,"viability, T/C","second compound 0.003 µM, first compound 10 µM",75%
same,"viability, T/C","second compound 0.00949 µM, first compound 0.0316 µM",65.7%
same,"viability, T/C","second compound 0.00949 µM, first compound 0.1 µM",53.2%
same,"viability, T/C","second compound 0.00949 µM, first compound 0.316 µM",53.3%
same,"viability, T/C","second compound 0.00949 µM, first compound 1 µM",50.9%
same,"viability, T/C","second compound 0.00949 µM, first compound 3.16 µM",49%
same,"viability, T/C","second compound 0.00949 µM, first compound 10 µM",52.7%
same,"viability, T/C","second compound 0.03 µM, first compound 0.0316 µM",43.3%
same,"viability, T/C","second compound 0.03 µM, first compound 0.1 µM",44.3%
same,"viability, T/C","second compound 0.03 µM, first compound 0.316 µM",38.7%
same,"viability, T/C","second compound 0.03 µM, first compound 1 µM",39.2%
same,"viability, T/C","second compound 0.03 µM, first compound 3.16 µM",35.5%
same,"viability, T/C","second compound 0.03 µM, first compound 10 µM",17.1%
same,"viability, T/C","second compound 0.0949 µM, first compound 0.0316 µM",46.2%
same,"viability, T/C","second compound 0.0949 µM, first compound 0.1 µM",43.8%
same,"viability, T/C","second compound 0.0949 µM, first compound 0.316 µM",41.2%
same,"viability, T/C","second compound 0.0949 µM, first compound 1 µM",45.5%
same,"viability, T/C","second compound 0.0949 µM, first compound 3.16 µM",38.2%
same,"viability, T/C","second compound 0.0949 µM, first compound 10 µM",19.1%
same,"viability, T/C","second compound 0.3 µM, first compound 0.0316 µM",47.6%
same,"viability, T/C","second compound 0.3 µM, first compound 0.1 µM",46.1%
same,"viability, T/C","second compound 0.3 µM, first compound 0.316 µM",41.2%
same,"viability, T/C","second compound 0.3 µM, first compound 1 µM",42.8%
same,"viability, T/C","second compound 0.3 µM, first compound 3.16 µM",41.2%
same,"viability, T/C","second compound 0.3 µM, first compound 10 µM",37.5%
Cc1cc(C)c(CNC(=O)c2cc(-c3ccc(CN4CCOCC4)cc3)cc3c2cnn3C2CCCC2)c(=O)[nH]1 + Cn1nnc2c(C(N)=O)ncn2c1=O,IC50,second compound 1 µM,> 10 µM
same,IC50,second compound 3.16 µM,> 10 µM
same,IC50,second compound 10 µM,> 10 µM
same,IC50,second compound 31.6 µM,8.54 µM
same,IC50,second compound 100 µM,3.35 µM
same,"viability, T/C","second compound 1 µM, first compound 0.0316 µM",102%
same,"viability, T/C","second compound 1 µM, first compound 0.1 µM",97%
same,"viability, T/C","second compound 1 µM, first compound 0.316 µM",93%
same,"viability, T/C","second compound 1 µM, first compound 1 µM",86.1%
same,"viability, T/C","second compound 1 µM, first compound 3.16 µM",76.8%
same,"viability, T/C","second compound 1 µM, first compound 10 µM",53.3%
same,"viability, T/C","second compound 3.16 µM, first compound 0.0316 µM",101%
same,"viability, T/C","second compound 3.16 µM, first compound 0.1 µM",99.5%
same,"viability, T/C","second compound 3.16 µM, first compound 0.316 µM",88.5%
same,"viability, T/C","second compound 3.16 µM, first compound 1 µM",83.2%
same,"viability, T/C","second compound 3.16 µM, first compound 3.16 µM",72%
same,"viability, T/C","second compound 3.16 µM, first compound 10 µM",56.5%
same,"viability, T/C","second compound 10 µM, first compound 0.0316 µM",90.7%
same,"viability, T/C","second compound 10 µM, first compound 0.1 µM",86.4%
same,"viability, T/C","second compound 10 µM, first compound 0.316 µM",88.5%
same,"viability, T/C","second compound 10 µM, first compound 1 µM",75.2%
same,"viability, T/C","second compound 10 µM, first compound 3.16 µM",69.8%
same,"viability, T/C","second compound 10 µM, first compound 10 µM",51.3%
same,"viability, T/C","second compound 31.6 µM, first compound 0.0316 µM",86.7%
same,"viability, T/C","second compound 31.6 µM, first compound 0.1 µM",79.1%
same,"viability, T/C","second compound 31.6 µM, first compound 0.316 µM",78%
same,"viability, T/C","second compound 31.6 µM, first compound 1 µM",69%
same,"viability, T/C","second compound 31.6 µM, first compound 3.16 µM",56.1%
same,"viability, T/C","second compound 31.6 µM, first compound 10 µM",49.7%
same,"viability, T/C","second compound 100 µM, first compound 0.0316 µM",68.7%
same,"viability, T/C","second compound 100 µM, first compound 0.1 µM",62.7%
same,"viability, T/C","second compound 100 µM, first compound 0.316 µM",63%
same,"viability, T/C","second compound 100 µM, first compound 1 µM",52.7%
same,"viability, T/C","second compound 100 µM, first compound 3.16 µM",49.1%
same,"viability, T/C","second compound 100 µM, first compound 10 µM",47%
